# Where “and” joins values, the source holds several entries; their conditions need not be identical. Identical values can stand only once.
# How the values were obtained:
# Lmna G609G/+ mouse = assay: Body weight of Lmna G609G/+ mice; format: in vivo; details: oral administration, relative body weight; for Lmna G609G/+ body weight, Ave: group average; for Lmna G609G/+ body weight: individual mouse
# Excerpt: Fig. 3 In vivo favorable effect of SLC-D011. A Gross morphology of Lmna^G609G/G609G mice (10 weeks old) was ameliorated after injection with SLC-D011. At the same age, the experimental group (D011) of mice were larger than vehicle-injected control (Con) subjects regardless of gender. B, C SLC-D011 increases body weight B and extends life span C of Lmna^G609G/G609G progeria model mouse (Con: n = 8; SLC-D011: n = 8). Compared with 14.8 weeks of average (ave) life span with maximum (max) life span of 15.5 weeks, 20 mg/kg of intraperitoneal (i.p) injection (twice a week) of SLC-D011 could extend the life span upto 19 weeks (max = 21 weeks). Lmna^G609G/G609G mice were injected with SLC-D011 from age of 5-week old, *p < 0.05. D Gross morphology of SLC-D011 injected Lmna^G609G/+ mouse. […] E SLC-D011 increases body weights of Lmna^G609G/+ mice (Con: n = 10; SLC-D011: n = 11), *p < 0.05. F Favorable effect of SLC-D011 on life span of Lmna^G609G/+ mice. Compared with vehicle-injected control group (ave = 46.7 weeks and max = 48 weeks), SLC-D011 treatment obviously extended the average life span to 63 weeks (max = 64 weeks). The injection was started from 32 weeks old, **p < 0.001. “Con” means vehicle (a solvent composed of DMSO and PBS)-injected mouse group. TEXT PRINTED IN THE PICTURE: (C) D011: Kaplan-Meier survival curve in Lmna^G609G/G609G: Ave=19; Kaplan-Meier survival curve in Lmna^G609G/G609G: Max=21 | (F) D011: Kaplan-Meier survival curve in Lmna^G609G/+: Ave=63; Kaplan-Meier survival curve in Lmna^G609G/+: Max=64 DOUBTS OF THE COPYIST ABOUT THIS PICTURE: Panels C and F: the Ave/Max labels are not printed with a group name. They are assigned to D011 (solid curve) or Con (dashed curve) only by their position beside the curves. / Panel C Ave=14.8, Max=15.5 and panel F Ave=46.7, Max=48 stand beside the dashed Con curve. They are left out because Con is the control group, not a substance. / No unit is printed with the Ave/Max values. Only the axis reads Age (weeks).
# Animal experiments were performed in a facility certified by the Association for Assessment and Accreditation of Laboratory Animal Care in compliance with animal policies approved by Pusan National University. The mouse work was performed under the study protocol PNU-2019-2181, as approved by the Institutional Animal Care and Use Committee. Lmna^G609G/609G mice were generated by timed mating of heterozygous Lmna^G609G/+ provided by Carlos López-Otín (Universidad de Oviedo, Asturias, Oviedo, Spain). SLC-D011 was mixed with dimethyl sulfoxide (DMSO) and phosphate-buffered saline (PBS). It was then intraperitoneally injected into mice (20 mg/kg twice per week from 5-week-old). SLC-D011 and lonafarnib were orally administrated to mice daily at a concentration of 10 mg/ml in monoolein-based solution. Lonafarnib was generously provided by Merck, the Progeria Research Foundation (PRF) and the PRF Lonafarnib Pre-clinical Drug Supply Program. Control mice were treated with monoolein-based solution alone in the same way. Lmna^G609G/609G mice were treated with clear chemical solution throughout the life span, starting from 5 weeks of age. Lmna^G609G/+ mice were treated via intraperitoneal and oral administrations, starting from 32 weeks of age.
# Fig. S10. Or al administration of SLC-D011 suppresses premature aging features of LmnaG609G/+ mi c e . A.
# Gross morphology of SLC-D011 treated Lmna G609G/+ mice at 36 weeks old. B. Oral administration of SLC-
# D011 increases body weight s of LmnaG609G/+ mi c e (untreated: n=11; SLC-D011: n=12), * p<0.05. C. […]
# intensity of H3K9me3 levels in lung, liver, and kidney tissues of age-matched Lmn a +/+ mouse, untreated
# LamnG609G/+ mouse and two progerinin- treated LmnaG609G/+ mice (n = 2 independent experiments; one
# Student’s t -test), **p < 0.001,*p< 0.05, N.S: not significant .AU, arbitrary units.
# Fig. S12. […] A. SLC-D011, compar ed to lonafarnib, reduces […]
# HGPS patients = details: trial without placebo; cited from earlier work
smiles,measurement,setting,value
"NC(=O)N1CCC(CC(=O)N2CCC([C@H]3c4ncc(Br)cc4CCc4cc(Cl)cc(Br)c43)CC2)CC1 [lonafarnib, reference compound]","Lmna G609G/+ body weight, Ave",Lmna G609G/+ mouse; week 36,1
same,Lmna G609G/+ body weight,Lmna G609G/+ mouse; week 36,1
same,"Lmna G609G/+ body weight, Ave",Lmna G609G/+ mouse; week 38,0.9406
same,Lmna G609G/+ body weight,Lmna G609G/+ mouse; week 38,0.9091 and 0.9 and 0.96 and 0.95 and 0.913 and 0.9565
same,"Lmna G609G/+ body weight, Ave",Lmna G609G/+ mouse; week 40,0.9202
same,Lmna G609G/+ body weight,Lmna G609G/+ mouse; week 40,0.8636 and 0.85 and 0.92 and 0.9 and 0.96 and 0.913 and 0.9565 and 0.95 and 0.9091
same,"Lmna G609G/+ body weight, Ave",Lmna G609G/+ mouse; week 42,0.88
same,Lmna G609G/+ body weight,Lmna G609G/+ mouse; week 42,0.8636 and 0.8 and 0.84 and 0.85 and 0.92 and 0.913 and 0.88 and 0.9091
same,"Lmna G609G/+ body weight, Ave",Lmna G609G/+ mouse; week 44,0.8157
same,Lmna G609G/+ body weight,Lmna G609G/+ mouse; week 44,0.7727 and 0.7 and 0.8 and 0.88 and 0.7273 and 0.8182 and 0.85
same,"Lmna G609G/+ body weight, Ave",Lmna G609G/+ mouse; week 46,0.7411
same,Lmna G609G/+ body weight,Lmna G609G/+ mouse; week 46,0.7273 and 0.65 and 0.72 and 0.75 and 0.76 and 0.7 and 0.8182 and 0.8
same,"Lmna G609G/+ body weight, Ave",Lmna G609G/+ mouse; week 48,0.6808
same,Lmna G609G/+ body weight,Lmna G609G/+ mouse; week 48,0.6818 and 0.6 and 0.64 and 0.75 and 0.68 and 0.7 and 0.7273 and 0.72
same,"Lmna G609G/+ body weight, Ave",Lmna G609G/+ mouse; week 50,0.6132
same,Lmna G609G/+ body weight,Lmna G609G/+ mouse; week 50,0.5909 and 0.55 and 0.6 and 0.7 and 0.64 and 0.5 and 0.6957 and 0.65 and 0.6818
same,"Lmna G609G/+ body weight, Ave",Lmna G609G/+ mouse; week 52,0.4605
same,Lmna G609G/+ body weight,Lmna G609G/+ mouse; week 52,0.4545 and 0 and 0.4 and 0.55 and 0.48 and 0.5217 and 0.6957 and 0.5 and 0.44
same,"Lmna G609G/+ body weight, Ave",Lmna G609G/+ mouse; week 54,0.1559
same,Lmna G609G/+ body weight,Lmna G609G/+ mouse; week 54,0.4545 and 0 and 0.44 and 0.5217
same,Extension of life span,HGPS patients,~ 2 years
